# Measurements: patent US7064124B2, “NF-κB inhibitor containing substituted benzoic acid derivative as active ingredient” (Daiichi Suntory Pharma Co., Ltd., priority 2001, dated 2006)
row,Structure (SMILES),melting point [°C]
1,"COC1=C(OC)C(=O)C(Cc2ccc(OC(C)=O)c(C(=O)Nc3ccccc3[N+](=O)[O-])c2)=C(C)C1=O [Example 153, N-[5-(5,6-Dimethoxy-3-methyl-1,4-benzoquinon-2-yl)methyl-2-acetoxybenzoyl]-2-nitroaniline]",97.5 to 100
2,"COC1=C(OC)C(=O)C(Cc2ccc(O)c(C(=O)Nc3ccccc3[N+](=O)[O-])c2)=C(C)C1=O [Example 154, N-[5-(5,6-Dimethoxy-3-methyl-1,4-benzoquinon-2-yl)methyl-2-hydroxybenzoyl]-2-nitroaniline]",155 to 156
3,"COC1=C(OC)C(=O)C(Cc2ccc(OC(C)=O)c(C(=O)Nc3ccccn3)c2)=C(C)C1=O [Example 155, N-(Pyridin-2-yl)-5-(5,6-dimethoxy-3-methyl-1,4-benzoquinon-2-yl)methyl-2-acetoxybenzamide]",124 to 126.5
4,"COC1=C(OC)C(=O)C(Cc2ccc(OC(C)=O)c(C(=O)NC3CC3)c2)=C(C)C1=O [Example 159, N-Cyclopropyl-5-(5,6-dimethoxy-3-methyl-1,4-benzoquinon-2-yl)methyl-2-acetoxybenzamide]",95.5 to 98
5,"COC1=C(OC)C(=O)C(Cc2ccc(OC(C)=O)c(C(=O)NC3CCCCC3)c2)=C(C)C1=O [Example 161, N-Cyclohexyl-5-(5,6-dimethoxy-3-methyl-1,4-benzoquinon-2-yl)methyl-2-acetoxybenzamide]",137.5 to 140
6,"COC1=C(OC)C(=O)C(Cc2cccc(C(=O)Nc3ccc(C(F)(F)F)cc3)c2OC(C)=O)=C(C)C1=O [Example 165, N-[3-(5,6-Dimethoxy-3-methyl-1,4-benzoquinon-2-yl)methyl-2-acetoxybenzoyl]-4-trifluoromethylaniline]",163 to 166
7,"COC1=C(OC)C(=O)C(Cc2cccc(C(=O)Nc3ccc(S(=O)(=O)C(F)(F)F)cc3)c2OC(C)=O)=C(C)C1=O [Example 175, N-[3-(5,6-Dimethoxy-3-methyl-1,4-benzoquinon-2-yl)methyl-2-acetoxybenzoyl]-4-(trifluoromethylsulfonyl)aniline]",87 to 89
8,"COC1=C(OC)C(=O)C(Cc2cccc(C(=O)Nc3ccc(Cl)cc3Cl)c2O)=C(C)C1=O [Example 177, N-[3-(5,6-Dimethoxy-3-methyl-1,4-benzoquinon-2-yl)methyl-2-hydroxybenzoyl]-2,4-dichloroaniline]",147 to 150
9,"COC1=C(OC)C(=O)C(Cc2cccc(C(=O)Nc3ccc(N4CCOCC4)cc3)c2OC(C)=O)=C(C)C1=O [Example 178, N-[3-(5,6-Dimethoxy-3-methyl-1,4-benzoquinon-2-yl)methyl-2-acetoxybenzoyl]-4-morpholinoaniline]",168 to 171
10,"COC1=C(OC)C(=O)C(Cc2ccc(OC(C)=O)c(C(=O)Nc3ccc(C(=O)O)cc3)c2)=C(C)C1=O [Example 189, N-[5-(5,6-Dimethoxy-3-methyl-1,4-benzoquinon-2-yl)methyl-2-acetoxybenzoyl]-4-aminobenzoic acid]",199 to 201.5
11,"COC1=C(OC)C(=O)C(Cc2ccc(O)c(C(=O)Nc3ccc(C(=O)O)cc3)c2)=C(C)C1=O [Example 190, N-[5-(5,6-Dimethoxy-3-methyl-1,4-benzoquinon-2-yl)methyl-2-hydroxybenzoyl]-4-aminobenzoic acid]",257 to 260
12,"COC1=C(OC)C(=O)C(Cc2ccc(OC(C)=O)c(C(=O)Nc3ncccc3C(=O)O)c2)=C(C)C1=O [Example 194, N-(3-Hydroxycarbonylpyridin-2-yl)-5-(5,6-dimethoxy-3-methyl-1,4-benzoquinon-2-yl)methyl-2-acetoxybenzamide]",148 to 151
13,"COC1=C(OC)C(=O)C(Cc2ccc(OC(C)=O)c(C(=O)Nc3ccc(C(=O)O)cn3)c2)=C(C)C1=O [Example 197, N-(5-Hydroxycarbonylpyridin-2-yl)-5-(5,6-dimethoxy-3-methyl-1,4-benzoquinon-2-yl)methyl-2-acetoxybenzamide]",123 to 125
14,"COC1=C(OC)C(=O)C(Cc2ccc(OC(C)=O)c(C(=O)Nc3cccnc3OC)c2)=C(C)C1=O [Example 215, N-(2-Methoxypyridin-3-yl)-5-(5,6-dimethoxy-3-methyl-1,4-benzoquinon-2-yl)methyl-2-acetoxybenzamide]",111 to 112
15,"COC1=C(OC)C(=O)C(Cc2ccc(OC(C)=O)c(C(=O)Nc3cc(OC)ccc3OC)c2)=C(C)C1=O [Example 219, N-[5-(5,6-Dimethoxy-3-methyl-1,4-benzoquinon-2-yl)methyl-2-acetoxybenzoyl]-2,5-dimethoxyaniline]",118.5 to 120
16,"COC1=C(OC)C(=O)C(Cc2ccc(OC(C)=O)c(C(=O)Nc3ccnc(OC)c3)c2)=C(C)C1=O [Example 230, N-(2-Methoxypyridin-4-yl)-5-(5,6-dimethoxy-3-methyl-1,4-benzoquinon-2-yl)methyl-2-acetoxybenzamide]",138 to 140.5

# More lines, now with the values ahead:
row,melting point [°C],Structure (SMILES)
1,127.5 to 130,"COC1=C(OC)C(=O)C(Cc2ccc(O)c(C(=O)Nc3cccc(C(F)(F)F)c3)c2)=C(C)C1=O [Example 152, N-[5-(5,6-Dimethoxy-3-methyl-1,4-benzoquinon-2-yl)methyl-2-hydroxybenzoyl]-3-trifluoromethylaniline]"
2,180 to 183,"COC1=C(OC)C(=O)C(Cc2ccc(O)c(C(=O)Nc3ccccn3)c2)=C(C)C1=O [Example 156, N-(Pyridin-2-yl)-5-(5,6-dimethoxy-3-methyl-1,4-benzoquinon-2-yl)methyl-2-hydroxybenzamide]"
3,111 to 112,"COC1=C(OC)C(=O)C(Cc2ccc(O)c(C(=O)NC3CC3)c2)=C(C)C1=O [Example 160, N-Cyclopropyl-5-(5,6-dimethoxy-3-methyl-1,4-benzoquinon-2-yl)methyl-2-hydroxybenzamide]"
4,107 to 109,"COC1=C(OC)C(=O)C(Cc2ccc(O)c(C(=O)NC3CCCCC3)c2)=C(C)C1=O [Example 162, N-Cyclohexyl-5-(5,6-dimethoxy-3-methyl-1,4-benzoquinon-2-yl)methyl-2-hydroxybenzamide]"
5,129 to 131.5,"COC1=C(OC)C(=O)C(Cc2cccc(C(=O)Nc3ccc(C(F)(F)F)cc3)c2O)=C(C)C1=O [Example 166, N-[3-(5,6-Dimethoxy-3-methyl-1,4-benzoquinon-2-yl)methyl-2-hydroxybenzoyl]-4-trifluoromethylaniline]"
6,83 to 85.5,"CCOC(=O)c1ccc(NC(=O)c2cc(CC3=C(C)C(=O)C(OC)=C(OC)C3=O)ccc2OCc2cccnc2)cc1 [Example 167, Ethyl N-[5-(5,6-dimethoxy-3-methyl-1,4-benzoquinon-2-yl)methyl-2-(3-pyridylmethyloxy)benzoyl]-4-aminobenzoate]"
7,116 to 119,"COC1=C(OC)C(=O)C(Cc2ccc(OCc3cccnc3)c(C(=O)Nc3ccncc3)c2)=C(C)C1=O [Example 168, N-(Pyridin-4-yl)-5-(5,6-dimethoxy-3-methyl-1,4-benzoquinon-2-yl)methyl-2-(3-pyridylmethyloxy)benzamide]"
8,135 to 137,"COC1=C(OC)C(=O)C(Cc2ccc(OCc3cccnc3)c(C(=O)Nc3cccnc3)c2)=C(C)C1=O [Example 169, N-(Pyridin-3-yl)-5-(5,6-dimethoxy-3-methyl-1,4-benzoquinon-2-yl)methyl-2-(3-pyridylmethyloxy)benzamide]"
9,87 to 89.5,"COC1=C(OC)C(=O)C(Cc2ccc(OCc3cccnc3)c(C(=O)NC3CC3)c2)=C(C)C1=O [Example 170, N-Cyclopropyl-5-(5,6-dimethoxy-3-methyl-1,4-benzoquinon-2-yl)methyl-2-(3-pyridylmethyloxy)benzamide]"
10,173 to 176,"COC1=C(OC)C(=O)C(Cc2ccc(OCc3cccnc3)c(C(=O)Nc3ccc(C(F)(F)F)cc3)c2)=C(C)C1=O [Example 172, N-[5-(5,6-Dimethoxy-3-methyl-1,4-benzoquinon-2-yl)methyl-2-(3-pyridylmethyloxy)benzoyl]-4-trifluoromethylaniline]"
11,177.5 to 180.5,"COC1=C(OC)C(=O)C(Cc2cccc(C(=O)Nc3ccc(N4CCOCC4)cc3)c2O)=C(C)C1=O [Example 179, N-[3-(5,6-Dimethoxy-3-methyl-1,4-benzoquinon-2-yl)methyl-2-hydroxybenzoyl]-4-morpholinoaniline]"
12,119 to 121.5,"COC1=C(OC)C(=O)C(Cc2ccc(O)c(C(=O)Nc3ccc(OC)nc3OC)c2)=C(C)C1=O [Example 183, N-(2,6-Dimethoxypyridin-3-yl)-5-(5,6-dimethoxy-3-methyl-1,4-benzoquinon-2-yl)methyl-2-hydroxybenzamide]"
13,138 to 141,"COC1=C(OC)C(=O)C(Cc2ccc(O)c(C(=O)Nc3c(Cl)cc(OC(F)(F)F)cc3Cl)c2)=C(C)C1=O [Example 192, N-[5-(5,6-Dimethoxy-3-methyl-1,4-benzoquinon-2-yl)methyl-2-hydroxybenzoyl]-2,6-dichloro-4-trifluoromethoxyaniline]"
14,134 to 136.5,"COC1=C(OC)C(=O)C(Cc2ccc(O)c(C(=O)Nc3ncccc3C(=O)O)c2)=C(C)C1=O [Example 195, N-(3-Hydroxycarbonylpyridin-2-yl)-5-(5,6-dimethoxy-3-methyl-1,4-benzoquinon-2-yl)methyl-2-hydroxybenzamide]"
15,238 to 241,"COC1=C(OC)C(=O)C(Cc2ccc(O)c(C(=O)Nc3ccc(C(=O)O)cn3)c2)=C(C)C1=O [Example 198, N-(5-Hydroxycarbonylpyridin-2-yl)-5-(5,6-dimethoxy-3-methyl-1,4-benzoquinon-2-yl)methyl-2-hydroxybenzamide]"
16,119 to 121.5,"COC1=C(OC)C(=O)C(Cc2ccc(O)c(C(=O)Nc3ccc(-n4ccnc4)cc3)c2)=C(C)C1=O [Example 209, N-[5-(5,6-Dimethoxy-3-methyl-1,4-benzoquinon-2-yl)methyl-2-hydroxybenzoyl]-4-(imidazol-1-yl)aniline]"
17,182 to 185.5,"COC1=C(OC)C(=O)C(Cc2ccc(O)c(C(=O)Nc3ccc(-c4ccn[nH]4)cc3)c2)=C(C)C1=O [Example 211, N-[5-(5,6-Dimethoxy-3-methyl-1,4-benzoquinon-2-yl)methyl-2-hydroxybenzoyl]-4-(1H-pyrazol-3-yl)aniline]"
